The record followed here is PubChem BioAssay (NCI).

Test systems include DMS 273 small cell lung; LXFL 529 NSCLC; M19-MEL melanoma; XF 498 CNS; RXF-631 renal; MCF7 breast; MDA-MB-231 breast; MDA-N; P388 leukemia; P388/ADR leukemia; PC-3 prostate; SN12K1 renal.
What all share (test): NCI tumour cell line growth inhibition, 48 h

“And” between values parts separate entries of the source, which are not always exact repeats. Equal values may be shown once.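 Method: 48-hour compound exposure of cells in 96-well plates, five concentrations, linear interpolation of endpoints. GI50 = concentration required for 50% inhibition of growth. TGI: total growth inhibition.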 Where only a bound is given, the exact number is not on record here.

`NCC(=O)OCN1C(=O)C2C3C=CC(C2C1=O)C1C2C(=O)N(COC(=O)CN)C(=O)C2C31` (stereo not drawn): the TGI was 33.6 µM and 37.3 µM in the assay with DMS 273 small cell lung; 42.1 µM and > 100 µM in the assay with LXFL 529 NSCLC; 45.1 µM and 37.9 µM in the assay with M19-MEL melanoma; 54.7 µM and 64.1 µM with XF 498 CNS.
For `CC(=O)[CH-]C(=O)c1ccccc1.CC(=O)[CH-]C(=O)c1ccccc1.CC(C)CCCC(C)[C@H]1CCC2[C@@H]3CCC4C[C@@H]([O-])CC[C@]4(C)C3CC[C@@]21C.CC(C)CCCC(C)[C@H]1CCC2[C@@H]3CCC4C[C@@H]([O-])CC[C@]4(C)C3CC[C@@]21C.Cl.[Ti+4]` (stereo partly drawn), the GI50 in the assay with DMS 273 small cell lung, in the assay with LXFL 529 NSCLC and with M19-MEL melanoma was over 25 µM each time. Besides, the TGI with DMS 273 small cell lung, in the assay with LXFL 529 NSCLC and in the assay with M19-MEL melanoma was over 25 µM throughout.
With `COC(=O)/C=C\C1C(C(=O)OC)C2(C(=O)OC)CCC1(C(=O)OC)N2` (stereo not drawn), the TGI turned out to be 33.9 µM in the assay on DMS 273 small cell lung; 19.3 µM with LXFL 529 NSCLC; 27.9 µM with M19-MEL melanoma; 48.7 µM in the assay on RXF-631 renal; 34.3 µM in the assay on XF 498 CNS.
Take `COC(=O)c1c(C(=O)OC)c(C(=O)OC)c(C(=O)OC)c1C(=O)OC`: the TGI in the assay with DMS 273 small cell lung, with LXFL 529 NSCLC and in the assay on RXF-631 renal was over 100 µM each time.
As to `CCN(CC)CCNc1ccc(CO)c2sc3ccccc3c(=O)c12`, the TGI with LXFL 529 NSCLC is 31.6 µM; in the assay on M19-MEL melanoma, 26.5 µM and 31.6 µM; with MCF7 breast it was 7.55 µM and 17.3 µM and 19.2 µM; in the assay with MDA-MB-231 breast it was 21.7 µM and 20.6 µM; in the assay on MDA-N, 16.6 µM; in the assay on P388 leukemia it was 8.68 µM. Further, the TGI with P388/ADR leukemia was 31.3 µM; in the assay on PC-3 prostate it was 17.5 µM and 17.8 µM; in the assay on SN12K1 renal it was 17.4 µM; in the assay on XF 498 CNS, 24.5 µM. Also, the GI50 is 2.21 µM and 4.35 µM and 5.57 µM with MCF7 breast; 4.26 µM and 4.92 µM with MDA-MB-231 breast; 3.65 µM in the assay on PC-3 prostate.
As to `CCCCCCCCCCSS(=O)(=O)c1ccc(C)cc1`, the TGI stood at 23 µM with DMS 273 small cell lung; 27.6 µM in the assay with LXFL 529 NSCLC; 26.6 µM in the assay on M19-MEL melanoma; 17.2 µM in the assay on RXF-631 renal; 26 µM in the assay on XF 498 CNS.
In the case of `CC(=O)[CH-]C(=O)c1ccccc1.CC(=O)[CH-]C(=O)c1ccccc1.[O-]c1ccc(O)cc1.[O-]c1ccc(O)cc1.[Ti+4]`, in the assay on LXFL 529 NSCLC, the GI50 was 13 µM and the TGI is 25.7 µM. In the assay on M19-MEL melanoma, the GI50 was 14.8 µM and the TGI stood at 29.7 µM.
As for `O=C1c2ccccc2C(=O)N1C/C=N/NS(=O)(=O)c1ccc(Cl)cc1`, the TGI with DMS 273 small cell lung, with LXFL 529 NSCLC, in the assay with M19-MEL melanoma, in the assay with RXF-631 renal and in the assay with XF 498 CNS was over 100 µM each time.
With `CCCC(=O)C(CC)/C(CCC(=O)N(Cc1ccccc1)Cc1ccccc1)=N/NC(=O)C[N+](C)(C)C` (stereo not drawn), the TGI in the assay with DMS 273 small cell lung, in the assay on LXFL 529 NSCLC, in the assay with M19-MEL melanoma and in the assay on XF 498 CNS was over 100 µM throughout.
In the case of `CCC1(c2ccncc2)CCC(=O)NC1=O` (stereo not drawn), the TGI with LXFL 529 NSCLC, in the assay with M19-MEL melanoma, in the assay on RXF-631 renal and in the assay with XF 498 CNS was over 100 µM each time.
Consider `S=C1SC2(CCCCCC2)NC2=C1CCCCC2`, for which the TGI is 65 µM in the assay with MCF7 breast, over 100 µM with MDA-MB-231 breast, over 100 µM in the assay on MDA-N and over 100 µM in the assay on PC-3 prostate.
As to `COC(=O)/C1=C/C2CC(/C=C(/c3ccccc3)C(=O)O1)C2`, the values for the TGI in the assay on DMS 273 small cell lung, in the assay on M19-MEL melanoma and in the assay with XF 498 CNS were 53 µM, over 100 µM and 45.2 µM, respectively.
As to `c1ccc2c(c1)[Se]c1ccccc1[Se]2`, the TGI in the assay on DMS 273 small cell lung, with LXFL 529 NSCLC, with M19-MEL melanoma and with XF 498 CNS was over 100 µM throughout.
As to `CC(=O)N1C(=O)C(=O)c2cc(Cl)ccc21`, the TGI in the assay on DMS 273 small cell lung was over 100 µM; in the assay on LXFL 529 NSCLC, over 100 µM; in the assay on M19-MEL melanoma, over 100 µM; in the assay with RXF-631 renal, over 100 µM; in the assay on XF 498 CNS it was 65.2 µM.
Turning to `CN(C)CC1CCC(CN(C)C)C1=NO` (stereo not drawn), the TGI in the assay with DMS 273 small cell lung, in the assay with LXFL 529 NSCLC and in the assay on M19-MEL melanoma was over 100 µM in each case.
For the molecule `Cc1occc1C(=S)Nc1ccc(Cl)c(C(=O)OCC2CC2)c1`, the TGI in the assay with MCF7 breast, with MDA-MB-231 breast, in the assay on MDA-N and in the assay on PC-3 prostate was over 100 µM each time.
Consider `COc1ccc2c(CCNS(=O)(=O)c3ccccc3)c(C(C)=O)[nH]c2c1[N+](=O)[O-]`, for which the TGI in the assay with DMS 273 small cell lung, in the assay with LXFL 529 NSCLC and in the assay on RXF-631 renal was over 100 µM in each case.
For the molecule `CC[O+]=c1cccc2ssnc1-2`, the TGI with DMS 273 small cell lung was over 100 µM; in the assay with LXFL 529 NSCLC, over 100 µM; with M19-MEL melanoma, over 100 µM; in the assay on RXF-631 renal it was over 100 µM; with XF 498 CNS, 66.9 µM.
On to `Nc1nc(N)c2ncn(Cc3c(Cl)cccc3Cl)c2n1`, for which the TGI with MCF7 breast, in the assay with MDA-MB-231 breast, in the assay on MDA-N and in the assay with PC-3 prostate was over 100 µM throughout.
